32 compounds from patent publication US11001564B2, “Substituted chromane-8-carboxamide compounds and analogues thereof, and methods using same” (priority 2016, dated 2021) can be followed below.

Counter-ions that a name gives are not always drawn.

Broadly, the EC50 is the concentration that produces a half-maximal response.

The first assay deals with HBV rcDNA in HepDE19 cells. Briefly: HepDE19 assay with bDNA quantitation of HBV rcDNA. The class given is cell-based, hepatitis B virus (HBV). The conditions noted are these: HepDE19 cells, 7 day incubation, rcDNA by Quantigene 2.0 bDNA assay; read-out: DE-19 bDNA EC50. The method, then: HepDE19 Assay with bDNA Quantitation of HBV rcDNA:
HepDE19 cell culture system is a HepG2 (human hepatocarcinoma) derived cell line that supports HBV DNA replication and cccDNA formation in a tetracycline (Tet)-regulated manner and produces HBV rcDNA and a detectable reporter molecule dependent on the production and maintenance of cccDNA (Guo, et al., 2007, J. Virol. 81:12472-12484).
HepDE19 (50,000 cells/well) were plated in 96 well collagen-coated tissue-culture treated microtiter plates in DMEM/F12 medium supplemented with 10% fetal bovine serum, 1% penicillin-streptomycin and 1 μg/mL tetracycline and incubated in a humidified incubator at 37° C. and 5% CO2 overnight. Next day, the cells were switched to fresh medium without tetracycline and incubated for 4 hours at 37° C. and 5% CO2. The cells were treated with fresh Tet-free medium with compounds at concentrations starting at 25 μM and a serial, ½ log, 8-point, titration series in duplicate. The final DMSO concentration in the assay was 0.5%. The plates were incubated for 7 days in a humidified incubator at 37° C. and 5% CO2. Following a 7 day-incubation, the level of rcDNA present in the inhibitor-treated wells was measured using a Quantigene 2.0 bDNA assay kit (Affymetrix, Santa Clara, Calif.) with HBV specific custom probe set and manufacturers instructions. Concurrently, the effect of compounds on cell viability was assessed using replicate plates, plated at a density of 5,000 cells/well and incubated for 4 days, to determine the ATP content as a measure of cell viability using the cell-titer glo reagent (CTG; Promega Corporation, Madison, Wis.) as per manufacturer's instructions. The plates were read using a Victor luminescence plate reader (PerkinElmer Model 1420 Multilabel counter) and the relative luminescence units (RLU) data generated from each well was calculated as % inhibition of the untreated control wells and analyzed using XL-Fit module in Microsoft Excel to determine EC50 and EC90 (bDNA) and CC50 (CTG) values using a 4-parameter curve fitting algorithm.
Representative compounds of the invention were tested for their ability to inhibit formation of relaxed circular DNA (rcDNA) in a HepDE19 assay, as described elsewhere herein.
As for `O=C(N[C@H]1CCOc2c(C(=O)Nc3ccc(F)c(F)c3)cccc21)OCC1CCCCN1` (single isomer, unassigned) [Compound 86], the half-maximal effective concentration (EC50) worked out at 15 µM.

Staying with this assay, now noted: Hepatitis B virus, HepDE19, 168 h, HepDE19 cells, 7 day incubation, rcDNA by Quantigene 2.0 bDNA assay; read-out: DE-19 bDNA EC50.
On to `O=C(N[C@@H]1CCOc2c(C(=O)Nc3ccc(F)c(F)c3)cccc21)OCc1ccccn1` [Compound 28, pyridin-2-ylmethyl (R)-(8-((3,4-difluorophenyl)carbamoyl)chroman-4-yl)carbamate], for which the EC50 was 15 µM.
For `COC(=O)N[C@H]1CCOc2c(C(=O)Nc3ccnc(C)c3)ccc(F)c21` [Compound 135, methyl (S)-(5-fluoro-8-((2-methylpyridin-4-yl)carbamoyl)chroman-4-yl)carbamate], the EC50 amounted to 9.7 µM.
The same measure, in the same setting: as for `COC(=O)N[C@H]1CCSc2c(C(=O)Nc3ccc(F)c(Cl)c3)ccc(F)c21` [Compound 174, Methyl (S)-(8-((3-chloro-4-fluorophenyl)carbamoyl)-5-fluorothiochroman-4-yl)carbamate], the figure is 1.6 µM; as for `Cc1cc(NC(=O)c2ccc(F)c3c2OCC[C@@H]3NC(=O)OC[C@H]2CCC(=O)N2C)ccc1F` [Compound 168, ((R)-1-Methyl-5-oxopyrrolidin-2-yl)methyl ((S)-5-fluoro-8-((4-fluoro-3-methylphenyl)carbamoyl)chroman-4-yl)carbamate], 1.6 µM.
As to `O=C1CCOc2c1ccc(F)c2C(=O)Nc1ccc(F)c(Cl)c1` [Compound 65, N-(3-chloro-4-fluorophenyl)-7-fluoro-4-oxochromane-8-carboxamide], the EC50 was determined as 4.1 µM.
In the case of `COC(=O)N[C@H]1CCSc2c(C(=O)Nc3ccc(F)c(F)c3)ccc(F)c21` [Compound 171, Methyl (S)-(8-((3,4-difluorophenyl)carbamoyl)-5-fluorothiochroman-4-yl)carbamate], the EC50 worked out at 4.1 µM.
As to `O=C(N[C@@H]1CCOc2c(C(=O)Nc3ccc(F)c(Cl)c3)ccc(F)c21)OCc1ccccn1` [Compound 106, pyridin-2-ylmethyl (R)-(8-((3-chloro-4-fluorophenyl)carbamoyl)-5-fluorochroman-4-yl)carbamate], the EC50 is 20 µM.
As to `O=C1CCOc2c1c(F)cc(F)c2C(=O)Nc1ccc(F)c(F)c1` [Compound 110, N-(3,4-difluorophenyl)-5,7-difluoro-4-oxochromane-8-carboxamide], the EC50 came out at 1.6 µM.
Turning to `O=C1C[C@@H](COC(=O)N[C@H]2CCOc3c(C(=O)Nc4ccc(F)c(Cl)c4)ccc(F)c32)N1` [Compound 154, ((S)-4-Oxoazetidin-2-yl)methyl ((S)-8-((3-chloro-4-fluorophenyl)carbamoyl)-5-fluorochroman-4-yl)carbamate], the EC50 was 1.1 µM.
Turning to `COC(=O)N[C@H]1CCOc2c(C(=O)Nc3cccc(Cl)c3)cccc21` [Compound 37, Methyl (S)-(8-((3-chlorophenyl)carbamoyl)chroman-4-yl)carbamate], the 50% effective concentration (EC50) came to 2.8 µM.
Consider `COC(=O)N[C@@H]1CCOc2c(C(=O)Nc3ccc(F)c(F)c3)ccc(F)c21` [Compound 39, methyl (R)-(8-((3,4-difluorophenyl)carbamoyl)-5-fluorochroman-4-yl)carbamate], for which the EC50 turned out to be 8.5 µM.
Turning to `Cc1cccc(COC(=O)N[C@H]2CCOc3c(C(=O)Nc4ccc(F)c(Cl)c4)cccc32)n1` [Compound 52, (6-Methylpyridin-2-yl)methyl (S)-(8-((3-chloro-4-fluorophenyl)carbamoyl)chroman-4-yl)carbamate], the EC50 is 1.7 µM.
Take `O=C(N[C@H]1CCOc2c(C(=O)Nc3ccc(F)c(F)c3)cccc21)OCC1CCNC1` (single isomer, unassigned) [Compound 108]: the EC50 stood at 21 µM.
Consider `O=C(Nc1ccc(F)c(F)c1)c1cccc2c1OCCC2c1ccccn1` (centres unmarked) [Compound 68, N-(3,4-difluorophenyl)-4-(pyridin-2-yl)chromane-8-carboxamide], for which the EC50 turned out to be 3.4 µM.
Turning to `Cc1cc(NC(=O)c2ccc(F)c3c2OCC[C@@H]3NC(=O)OCc2ncccn2)ccc1F` [Compound 120, Pyrimidin-2-ylmethyl (S)-(5-fluoro-8-((4-fluoro-3-methylphenyl)carbamoyl)chroman-4-yl)carbamate], the EC50 is 0.54 µM.
`COC(=O)N[C@H]1CCOc2c(C(=O)NCc3cccc(F)c3)cccc21` [Compound 36, methyl (S)-(8-((3-fluorobenzyl)carbamoyl)chroman-4-yl)carbamate]: the concentration for a half-maximal effect (EC50) amounted to 22 µM.
Turning to `Cc1cc(NC(=O)c2ccc(F)c3c2OCC[C@@H]3NC(=O)OC[C@@H]2CC(=O)N2)ccc1F` [Compound 147, ((S)-4-Oxoazetidin-2-yl)methyl ((S)-5-fluoro-8-((4-fluoro-3-methylphenyl)carbamoyl)chroman-4-yl)carbamate], the EC50 is 0.84 µM.
`Cc1cc(NC(=O)c2ccc(F)c3c2OCC[C@@H]3NC(=O)OCCc2ccccn2)ccc1F` [Compound 138, 2-(Pyridin-2-yl)ethyl (S)-(5-fluoro-8-((4-fluoro-3-methylphenyl)carbamoyl)chroman-4-yl)carbamate]: the EC50 stood at 0.6 µM.
On the same count and under the same terms, to `O=C1CC[C@@H](COC(=O)N[C@H]2CCOc3c(C(=O)Nc4ccc(F)c(Cl)c4)ccc(F)c32)N1` [Compound 156, ((S)-5-Oxopyrrolidin-2-yl)methyl ((S)-8-((3-chloro-4-fluorophenyl)carbamoyl)-5-fluorochroman-4-yl)carbamate] belongs 0.74 µM.
On the same count and under the same terms, to `O=C(N[C@H]1CCOc2c(C(=O)Nc3ccc(F)c(F)c3)cccc21)OCc1ccon1` [Compound 103, Isoxazol-3-ylmethyl (S)-(8-((3,4-difluorophenyl)carbamoyl)chroman-4-yl)carbamate] belongs 2.1 µM; to `O=C(Nc1ccc(F)c(F)c1)c1cccc2c1OCCC2c1cnccn1` (centres unmarked) [Compound 97, N-(3,4-difluorophenyl)-4-(pyrazin-2-yl)chromane-8-carboxamide], 16 µM; to `O=C(Nc1ccc(F)c(F)c1)c1c(F)ccc2c1OCC[C@@H]2Nc1ncccn1` [Compound 56, (S)—N-(3,4-Difluorophenyl)-7-fluoro-4-(pyrimidin-2-ylamino)chromane-8-carboxamide], 2.5 µM.
Take `O=C(N[C@H]1CCOc2c(C(=O)Nc3ccc(F)c(F)c3)ccc(Cl)c21)OCc1ccccn1` [Compound 134, Pyridin-2-ylmethyl (S)-(5-chloro-8-((3,4-difluorophenyl)carbamoyl)chroman-4-yl)carbamate]: the EC50 is 1.3 µM.
As to `O=C(Nc1ccc(F)c(F)c1)c1cccc2c1OCCC2c1ccncc1` (single isomer, unassigned) [Compound 69, N-(3,4-Difluorophenyl)-4-(pyridin-4-yl)chromane-8-carboxamide], the EC50 came to 12 µM.

Still in this assay, the particulars now being: Hepatitis B virus, HepDE19, 168 h, read-out: DE-19 bDNA EC50, HepDE19 cells, 7 day incubation, rcDNA by Quantigene 2.0 bDNA assay.
`COC(=O)N[C@H]1CCOc2c1ccc(Cl)c2C(=O)Nc1ccc(F)c(F)c1` [Compound 83, Methyl (S)-(7-chloro-8-((3,4-difluorophenyl)carbamoyl)chroman-4-yl)carbamate]: the EC50 stood at 5.4 µM.
The same measure, in the same setting: as for `CCCOC(=O)N[C@H]1CCOc2c(C(=O)Nc3ccc(F)c(F)c3)cccc21` [Compound 21, Propyl (8-((3,4-difluorophenyl)carbamoyl)chroman-4-yl)carbamate], the figure is 22 µM.
Take `COC(=O)N[C@H]1CCOc2c(C(=O)Nc3ccc(F)c(F)c3)ccc(F)c21` [Compound 38, methyl (S)-(8-((3,4-difluorophenyl)carbamoyl)-5-fluorochroman-4-yl)carbamate]: the EC50 was 0.57 µM.
In the case of `O=C(N[C@H]1CCOc2c(C(=O)Nc3ccc(F)c(F)c3)cccc21)OCc1ccc(Cl)cn1` [Compound 88, (5-Chloropyridin-2-yl)methyl (S)-(8-((3,4-difluorophenyl)carbamoyl)chroman-4-yl)carbamate hydrochloride], the EC50 turned out to be 13 µM.
The same measure, in the same setting: as for `O=C(N[C@H]1CCOc2c(C(=O)Nc3ccc(F)c(F)c3)cccc21)OCc1cc(Cl)ccn1` [Compound 82, (4-Chloropyridin-2-yl)methyl (S)-(8-((3,4-difluorophenyl)carbamoyl)chroman-4-yl)carbamate hydrochloride], the figure is 3.2 µM.
As for `COC(=O)N[C@H]1CCOc2c(C(=O)Nc3ccc(F)c(F)c3)cccc21` [Compound 8, methyl (S)-(8-((3,4-difluorophenyl)carbamoyl)chroman-4-yl)carbamate], the EC50 turned out to be 2.3 µM.
Still for that read-out and setting: as for `CS(=O)(=O)N1CCC(COC(=O)N[C@H]2CCOc3c(C(=O)Nc4ccc(F)c(Cl)c4)ccc(F)c32)CC1` [Compound 162, (1-(Methylsulfonyl)piperidin-4-yl)methyl (S)-(8-((3-chloro-4-fluorophenyl)carbamoyl)-5-fluorochroman-4-yl)carbamate], the figure is 6.1 µM.
